Laboratory results reported in US20200108034A1, “USE OF CITRULLINE AND GLUTATHIONE TO INCREASE MUSCLE MASS” (KYOWA HAKKO BIO CO., LTD., priority 2017, published 2020).

Columns and labels:
Type in all cases: in vivo, human
[1] = Body composition (body mass, DEXA fat mass, bioimpedance total body water) at days 0, 29, 57; conditions: mean ± SEM, N = 25; for Fat Mass: DEXA; for Total Body Water: bioelectrical impedance
Procedure: (§1) Seventy-five resistance-trained (e.g., regular, resistance training thrice weekly for at least one year prior to the study) males between the ages of 18-35 and having a BMI between 18.5 and 30 kg/m^2 were divided into 3 groups of 25, wherein each group received one of the following supplements: (A) 2 g/day L-citrulline (CIT) and 200 mg/day glutathione (GSH), (B) 2 g/day L-citrulline malate only, or (C) 2.52 g/day of cellulose placebo. Participants were matched by total body mass and then randomly assigned a supplementation protocol in a double-blind fashion. Participants took their supplements one hour prior to their workout on exercise days. On non-exercise days, participants took their supplements in the morning with breakfast.
(§2) Body composition was measured at days 0, 29, and 57 during the study. Total body mass (kg) was determined on a standard dual beam balance scale (Detecto, Bridgeview, Ill.). Percent body fat, fat mass, and fat-free mass were determined using DEXA (Discovery Series W, commercially available from Hologic, Waltham, Mass.). Quality control calibration procedures were performed on a spine phantom (X-CALIBER Model DPA/QDR-1 anthropometric spine phantom, commercially available from Hologic, Waltham, Mass.) and a density step calibration phantom prior to each testing session. Total body water was determined with bioelectrical impedance spectroscopy (Tanita Inc., Arlington Heights, Ill.) using a low energy, high frequency current (500 micro amps at a frequency of 50 kHz).
Participants engaged in a supervised, periodized 4 day per week resistance-training program split into two upper and two lower extremity workouts per week for a total of 8 weeks. Prior to the workout, participants performed a standardized series of stretching exercises. The participants then performed an upper-body resistance-training program consisting of bench press, lat pull, shoulder press, seated row, shoulder shrugs, chest fly, biceps curl, triceps press down, and abdominal curls, twice per week, and a lower-body program consisting of leg press, back extension, step ups, leg curls, leg extension, heel raises, and abdominal crunches, also performed twice per week. Participants performed 3 sets of 10 repetitions with as much weight as they could lift per set (typically 70 to 80% of 1-RM). Rest periods between exercises and sets lasted no longer than 2 minutes.

[2] = Whole blood cell counts with differentials, day 0 and day 57; conditions: mean ± SEM; for Absolute basophils / Absolute eosinophils / Absolute lymphocytes / Absolute monocytes / Absolute neutrophils / Hb / Platelet / RBC / WBC: N = 25; for Red cell distribution width: N = 25, in % (unit assumed)
Procedure: as §1
(§3) Venous blood samples were obtained from the antecubital vein using a standard VACUTAINER™ apparatus into one tube for serum separation and one for whole blood. The serum separation tubes were allowed to stand at room temperature for 15 minutes and then centrifuged for 10 minutes, and serum was removed and placed into a microfuge tube. Blood samples were obtained prior to the first dose of supplement and prior to beginning the resistance training program (day 0) and after eight weeks of supplementation and resistance training (day 57).
(§4) Serum samples were assayed for the following general clinical chemistry markers: glucose, total protein, blood urea nitrogen, creatinine, BUN/creatinine ratio, AST, ALT, albumin, globulin, total bilirubin, alkaline phosphatase. Whole blood samples were assayed for standard cell blood counts with percentage differentials, such as hemoglobin, red blood cell counts, white blood cell counts, neutrophils, lymphocytes, monocytes, eosinophils, and basophils.

[3] = Change in muscle mass after 8-week resistance training with supplementation
Procedure: as §1
as §2, with “Quality control calibration procedures were performed on a spine phantom (X-CALIBER Model DPA/QDR-1 anthropometric spine phantom, commercially available from Hologic, Waltham, Mass.) and a density step calibration phantom prior to each testing session.” left out, “kHz). […]” for “kHz).”

[4] = Serum general clinical chemistry markers, day 0 and day 57; conditions: mean ± SEM, N = 25
Procedure: as §1, §3, §4

NC(=O)NCCC[C@H](N)C(=O)O.O=C(O)CC(O)C(=O)O [CIT-malate, L-citrulline malate]
Fat Mass ([1]; Baseline): 11.2 ± 1.04 kg | Total Body Water ([1]; Baseline): 47.9 ± 1.14 kg | Body Mass ([1]; Baseline): 79.2 ± 2.50 kg | Fat Mass ([1]; supplementation week 4): 11.5 ± 0.92 kg | Total Body Water ([1]; supplementation week 4): 48.1 ± 1.16 kg | Body Mass ([1]; supplementation week 4): 79.5 ± 2.52 kg | Fat Mass ([1]; supplementation week 8): 11.9 ± 0.96 kg | Total Body Water ([1]; supplementation week 8): 48.4 ± 1.14 kg | Body Mass ([1]; supplementation week 8): 80.1 ± 2.42 kg | Absolute basophils ([2]; 8 weeks): 26.8 ± 3.2 µL⁻¹ | Absolute eosinophils ([2]; 8 weeks): 312.8 ± 79.5 µL⁻¹ | Absolute lymphocytes ([2]; 8 weeks): 1902.7 ± 85.5 µL⁻¹ | Absolute monocytes ([2]; 8 weeks): 370.5 ± 30.7 µL⁻¹ | Absolute neutrophils ([2]; 8 weeks): 3292.4 ± 318.9 µL⁻¹ | Hb ([2]; 8 weeks): 15.0 ± 0.1 g/dL | Platelet ([2]; 8 weeks): 212.4 ± 8.0 ×10^3/μL | RBC ([2]; 8 weeks): 5.1 ± 0.06 ×10^6/μL | WBC ([2]; 8 weeks): 5.7 ± 0.3 ×10^3/μL | Red cell distribution width ([2]; 8 weeks): 13.5 ± 0.4 | Absolute basophils ([2]; Baseline): 31.2 ± 3.3 µL⁻¹ | Absolute eosinophils ([2]; Baseline): 130.5 ± 16.6 µL⁻¹ | Absolute lymphocytes ([2]; Baseline): 2032.1 ± 131.4 µL⁻¹ | Absolute monocytes ([2]; Baseline): 371.8 ± 25.6 µL⁻¹ | Absolute neutrophils ([2]; Baseline): 3652.2 ± 306.1 µL⁻¹ | Hb ([2]; Baseline): 15.1 ± 0.2 g/dL | Platelet ([2]; Baseline): 218.2 ± 10.9 ×10^3/μL | RBC ([2]; Baseline): 5.1 ± 0.07 ×10^6/μL | WBC ([2]; Baseline): 6.2 ± 0.3 ×10^3/μL | Red cell distribution width ([2]; Baseline): 13.3 ± 0.1 | participants who displayed increases in muscle mass at both 4 and 8 weeks ([3]; FIG. 2, 25 per group): 36% | change in muscle mass ([3]; at 4 and 8 weeks, vs placebo, heavy resistance training, FIGS. 1A and 1B): increase in muscle mass compared to persons receiving only placebo | ALP ([4]; 8 weeks): 73.0 ± 4.5 IU/L | ALT ([4]; 8 weeks): 22.9 ± 1.8 IU/L | AST ([4]; 8 weeks): 21.3 ± 1.3 IU/L | Albumin ([4]; 8 weeks): 4.7 ± 0.05 g/dL | Albumin/Globulin ([4]; 8 weeks): 1.9 ± 0.06 | Bilirubin ([4]; 8 weeks): 0.6 ± 0.05 mg/dL | Creatinine ([4]; 8 weeks): 1.1 ± 0.04 mg/dL | Glucose ([4]; 8 weeks): 101.8 ± 3.9 mg/dL | Total protein ([4]; 8 weeks): 7.2 ± 0.1 g/dL | Urea nitrogen ([4]; 8 weeks): 16.9 ± 0.7 mg/dL | ALP ([4]; Baseline): 74.9 ± 4.5 IU/L | ALT ([4]; Baseline): 24.9 ± 2.4 IU/L | AST ([4]; Baseline): 23.8 ± 1.5 IU/L | Albumin ([4]; Baseline): 4.9 ± 0.05 g/dL | Albumin/Globulin ([4]; Baseline): 2.0 ± 0.07 | Bilirubin ([4]; Baseline): 0.7 ± 0.08 mg/dL | Creatinine ([4]; Baseline): 1.1 ± 0.03 mg/dL | Glucose ([4]; Baseline): 97.5 ± 3.4 mg/dL | Total protein ([4]; Baseline): 7.4 ± 0.1 g/dL | Urea nitrogen ([4]; Baseline): 16.8 ± 0.8 mg/dL
